Test results from ChEMBL document CHEMBL3414538, “Synthesis, biological evaluation and molecular modeling studies of the PPARβ/δ antagonist CC618” (Eur J Med Chem, 2015).
Activity calls are given as the source filed them. The rule behind the calls is not given here.

How the values were obtained:
[1] = molecular target: T1, Peroxisome proliferator-activated receptor delta (Homo sapiens, UniProt Q03181); experiment: Antagonist activity against pSG5-Gal4-tagged human PPAR-beta/delta ligand binding domain expressed in COS1 cells assessed as inhibition of GW501516-induced receptor activation incubated for 19 hrs by pGL3-5XUAS-SV40 luciferase reporter gene assay; type: cell-based, COS-1
T1 sequence (Q03181 whole entry): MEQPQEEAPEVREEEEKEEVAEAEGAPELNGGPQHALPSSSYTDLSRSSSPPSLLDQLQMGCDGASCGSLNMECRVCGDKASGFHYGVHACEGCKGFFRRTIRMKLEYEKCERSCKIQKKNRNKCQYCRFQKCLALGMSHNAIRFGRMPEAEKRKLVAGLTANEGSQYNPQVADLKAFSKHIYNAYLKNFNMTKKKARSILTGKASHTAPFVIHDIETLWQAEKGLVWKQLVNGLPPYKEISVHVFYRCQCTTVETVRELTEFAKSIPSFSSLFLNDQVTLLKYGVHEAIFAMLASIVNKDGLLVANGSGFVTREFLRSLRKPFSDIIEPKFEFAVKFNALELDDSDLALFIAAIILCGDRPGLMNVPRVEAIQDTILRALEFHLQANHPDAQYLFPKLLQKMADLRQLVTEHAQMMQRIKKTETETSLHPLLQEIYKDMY

[2] = molecular target: T1, Peroxisome proliferator-activated receptor delta; experiment: Agonist activity at pSG5-Gal4-tagged human PPAR-beta/delta ligand binding domain expressed in COS1 cells assessed as receptor activation incubated for 19 hrs by pGL3-5XUAS-SV40 luciferase reporter gene assay; type: cell-based; conditions: cos-1
[3] = molecular target: T2, Peroxisome proliferator-activated receptor gamma (Homo sapiens) (UniProt P37231); experiment: Antagonist activity against pSG5-Gal4-tagged human PPAR-gamma ligand binding domain expressed in COS1 cells assessed as inhibition of rosiglitazone-induced receptor activation at 20 nM to 20000 nM incubated for 19 hrs by pGL3-5XUAS-SV40 luciferase reporter gene assay; type: cell-based; conditions: COS-1
T2 sequence (whole entry): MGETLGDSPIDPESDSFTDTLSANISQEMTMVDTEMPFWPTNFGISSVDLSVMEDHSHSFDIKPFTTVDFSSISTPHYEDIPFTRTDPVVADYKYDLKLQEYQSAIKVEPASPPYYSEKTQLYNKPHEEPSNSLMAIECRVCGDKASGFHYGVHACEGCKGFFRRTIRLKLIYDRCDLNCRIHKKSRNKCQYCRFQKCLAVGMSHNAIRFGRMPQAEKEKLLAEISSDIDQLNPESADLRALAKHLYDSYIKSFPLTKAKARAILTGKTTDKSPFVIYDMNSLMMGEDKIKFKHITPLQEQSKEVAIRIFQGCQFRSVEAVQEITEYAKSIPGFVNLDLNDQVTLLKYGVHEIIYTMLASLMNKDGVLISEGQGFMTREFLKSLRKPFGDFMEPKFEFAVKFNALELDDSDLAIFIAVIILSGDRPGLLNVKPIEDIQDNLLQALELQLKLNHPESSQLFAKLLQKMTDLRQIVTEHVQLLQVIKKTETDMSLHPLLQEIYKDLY

[4] = molecular target: T3, Peroxisome proliferator-activated receptor alpha (Homo sapiens) (UniProt Q07869); experiment: Antagonist activity against pSG5-Gal4-tagged human PPAR-alpha ligand binding domain expressed in COS1 cells assessed as inhibition of bezafibrate-induced receptor activation at 1 nM to 100000 nM incubated for 19 hrs by pGL3-5XUAS-SV40 luciferase reporter gene assay; type: cell-based; conditions: COS-1
T3 sequence (whole entry): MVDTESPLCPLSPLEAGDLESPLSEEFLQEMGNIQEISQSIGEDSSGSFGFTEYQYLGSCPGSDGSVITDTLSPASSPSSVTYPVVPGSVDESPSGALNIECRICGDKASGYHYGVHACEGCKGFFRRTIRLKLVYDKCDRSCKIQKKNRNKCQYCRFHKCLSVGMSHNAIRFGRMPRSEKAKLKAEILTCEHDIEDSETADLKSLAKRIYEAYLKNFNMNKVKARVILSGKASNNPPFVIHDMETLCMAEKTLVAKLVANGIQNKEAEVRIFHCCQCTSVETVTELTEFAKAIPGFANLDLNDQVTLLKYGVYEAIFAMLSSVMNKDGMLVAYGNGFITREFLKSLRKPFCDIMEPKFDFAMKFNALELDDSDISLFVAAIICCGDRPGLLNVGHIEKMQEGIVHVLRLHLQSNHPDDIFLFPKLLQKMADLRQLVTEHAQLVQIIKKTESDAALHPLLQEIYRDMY

| IC50 ([1]; read-out: IC50) [µM] | EC50 [2] | inhibition [3] | inhibition [4] | IC50 ([1]; cos-1) | Compound |
| --- | --- | --- | --- | --- | --- |
| 10 | Not Active | inactive | inactive | – | Cc1nc(-c2ccc(C(F)(F)F)cc2)sc1C(=O)NCCS(=O)(=O)c1ccc(C(F)(F)F)cn1 |
| 5 | Not Active | – | – | – | O=C(NCCS(=O)(=O)c1ccc(C(F)(F)F)cn1)c1ccc(Cl)cc1 |
| – | – | – | – | Not Active | Cc1nc(-c2ccc(C(F)(F)F)cc2)sc1C(=O)NCCS(=O)(=O)c1ccccn1 |
